# From patent publication US5846566A, “Microcapsules for the controlled release of acetylsalicylic acid in the gastrointestinal environment” (Flamel Technologies, priority 1993, dated 1998)
# Experiments:
# [1] = acute oral toxicity in rats; type: in vivo, rat (Sprague-Dawley); conditions: rat, in vivo, 14 days
# Method: (§1) The microcapsules of aspirin M1 prepared according to Example 1 were subjected to a toxicological study by comparison with commercial aspirin (CA) in the form of a white powder. The acute toxicity of these two pharmaceutical forms of aspirin was evaluated and compared by oral administration to rats.
# (§2) Each of the two formulations of the product was administered orally to groups of 10 Sprague-Dawley rats (5 males and 5 females) in a volume of 10 ml/kg and in suspension in 0.5% carboxymethyl cellulose. […] All the animals were placed on a water diet before the treatment.
# (§3) The mortality, the general behavior and the weight change of the surviving animals were followed for a period of 14 days after the single administration of the product. An anatomicopathological examination was carried out on each of the animals found dead or sacrificed at the end of the study.
# (§4) The LD50 was calculated by Finney's method.
# Sprague-Dawley rats = test: acute oral toxicity in rats; type: in vivo, rat (Sprague-Dawley)
# Method: as §1, §2, §3, §4
# 11-dehydrothromboxane B2 = test: inhibition of urinary 11-dehydrothromboxane B2, repeated administration; type: in vivo, human; conditions: 28 days; 320 mg encapsulated or 350 mg control ASA daily
# Method: (§5) Twelve healthy male volunteers were assigned to one or other of the following two treatments according to a randomization schedule obtained by drawing lots. Group A received one 320 mg gelatin capsule of encapsulated ASA (microcapsules M1 of Example 1) orally every morning for 28 days. Group B received 350 mg of non-encapsulated control ASA in solution every morning for 28 days.
# (§6) During each period, urine samples were taken from each subject for assaying the creatininuria and measuring the platelet and vascular prostaglandins.
# (§7) The morning urine was collected at 7 am on days D1, D2, D14, D27 and D28. The subjects were asked to empty their bladder between midnight and 1 am and then not to urinate again until the morning so that the 6-hour urine could be obtained. The morning urination was performed before the subjects got up. Of each sample collected: […]
# (§8) The aspirin and salicylic acid were analyzed using an HPLC method specially developed for assaying low levels in biological media. The serum thromboxane B2 was analyzed using an enzyme immunoassay method described by […] et al. [Analytical Chemistry 57, 1170-1173 (1985); Ann. […] For the urine samples, the 11-dehydrothromboxane B2, dinorthromboxane B2 and dinor-6-ketoprostaglandin F1α were analyzed by the method cited above, with prior extraction in the solid phase and purification by thin layer chromatography. […]
# prostacycline = test: inhibition of prostacycline (urinary dinor-6-ketoprostaglandin F1α), repeated administration; type: in vivo, human; conditions: 28 days; 320 mg encapsulated or 350 mg control ASA daily
# Method: as §5, §6, §7, §8
# 6-ketoprostaglandin F1α = test: urinary excretion of 6-ketoprostaglandin F1α (renal origin), repeated administration; type: in vivo, human; conditions: 28 days; 320 mg encapsulated or 350 mg control ASA daily
# Method: as §5, §6
# (§9) The morning urine was collected at 7 am on days D1, D2, D14, D27 and D28. The subjects were asked to empty their bladder between midnight and 1 am and then not to urinate again until the morning so that the 6-hour urine could be obtained. The morning urination was performed before the subjects got up. Of each sample collected:
# (§10) 40 ml were transferred to two appropriately labeled 20 ml polypropylene tubes, which were then frozen immediately at -20° C.
# (§11) Thromboxane B2 and 6-ketoprostaglandin F1α are metabolites of […] of renal origin.
# [2] = tested on: thromboxane B2 of renal origin; test: urinary excretion of thromboxane B2 (renal origin), repeated administration; type: in vivo, human; conditions: 28 days; 320 mg encapsulated or 350 mg control ASA daily
# Method: as §5, §6, §9, §10, §11
# [3] = tested on: urinary dinorthromboxane B2; test: inhibition of urinary dinorthromboxane B2, repeated administration; type: in vivo, human; conditions: 28 days; 320 mg encapsulated or 350 mg control ASA daily
# Method: as §5, §6, §7, §8
# serum thromboxane B2 = test: inhibition of serum thromboxane B2 after repeated administration for 28 days; type: in vivo, human; conditions: as from the third day of treatment; 320 mg encapsulated or 350 mg control ASA daily
# Method: as §5
# In both cases, the subjects took the treatments with 200 ml of water.
# Samples (5 cl) for measurement of the serum thromboxane B2 were taken before administration of the daily treatment on D1, D2, D3, D4, D5, D14, D21, D27, D28 and D42.
# The aspirin and salicylic acid were analyzed using an HPLC method specially developed for assaying low levels in biological media. The serum thromboxane B2 was analyzed using an enzyme immunoassay method described by […] et al. [Analytical Chemistry 57, 1170-1173 (1985); Ann. Biol. Clin. 43, 475-484 (1985)]. For the urine samples, the 11-dehydrothromboxane B2, dinorthromboxane B2 and dinor-6-ketoprostaglandin F1α were analyzed by the method cited above, with prior extraction in the solid phase and purification by thin layer chromatography. This method was validated by gas chromatography coupled with mass spectrometry using a negative ion ionization detector [LELLOUCHE et al., Prostaglandine 40, 297-310 (1990)].
# vascular prostacycline = conditions: daily dose; cited from earlier work
# thromboxane = conditions: daily dose; very substantially below the minimum percentage; cited from earlier work
smiles,measurement,setting,value
"CC(=O)Oc1ccccc1C(=O)O [CA, acetylsalicylic acid]",LD50 at 336 h,[1],1430 mg/kg
same,autopsy findings,Sprague-Dawley rats; 740 and 1110 mg/kg,no macroscopic anomalies
same,autopsy findings,"Sprague-Dawley rats; 1670 and 2500 mg/kg, animals found dead","abnormally blackish coloration of the liver, a discoloration with wall thickening in the digestive tract (intestines and stomach) and reddish petechiae in the stomach"
same,weight change,"Sprague-Dawley rats; CA 740-2500 mg/kg (between day 1 and day 5), CRA 2500 mg/kg (throughout the study)","slight drop in the weight gain, related to the dose administered"
same,general behavior,"Sprague-Dawley rats; CA 740-2500 mg/kg, CRA 2500 mg/kg","a drop in the spontaneous activity, related to the dose administered, and piloerection"
same,"LD50, lower limit of the confidence interval",Sprague-Dawley rats; probability threshold of 95%,936 mg/kg
same,"LD50, upper limit of the confidence interval",Sprague-Dawley rats; probability threshold of 95%,2394 mg/kg
"CC(=O)Oc1ccccc1C(=O)O [control ASA, acetylsalicylic acid]","inhibition of urinary metabolite of thromboxane (11-dehydrothromboxane B2, first value pair)",11-dehydrothromboxane B2,75.6%
same,inhibition of the prostacycline,prostacycline,43.2%
same,"inhibition of prostaglandins of renal origin (6-ketoprostaglandin F1α, second value pair)",6-ketoprostaglandin F1α,34.6%
same,"inhibition of prostaglandins of renal origin (thromboxane B2, first value pair)",[2],42.8%
same,"inhibition of urinary metabolite of thromboxane (dinorthromboxane B2, second value pair)",[3],68.9%
same,inhibition of thromboxane originating from the platelets,serum thromboxane B2,98.15%
"CC(=O)Oc1ccccc1C(=O)O [conventional aspirin, acetylsalicylic acid]",inhibition of vascular prostacycline,vascular prostacycline,25%
same,thromboxane inhibition,thromboxane,< 95%
